US4237135A, “2-(4-Ethyl-1-piperazinyl)-4-phenylquinoline, process for preparation thereof, and composition thereof” (Dainippon Pharmaceutical Co., Ltd., priority 1978, dated 1980)
Where two headings read alike, the source gives them in different places.

What was measured:
[1] = system: spontaneous and methamphetamine-induced locomotor activities; test: Neuroleptics-like activity, overall (Test 2); assay type: in vivo, male STD-ddY strain mice; conditions: overall conclusion
antidepressant activity = test: Antidepressant activity, overall (Test 1); assay type: in vivo, male STD-ddY strain mice; male Wistar strain rats
Description: This effect was examined according to the method of […]. 2, 725 (1963)], using male STD-ddY strain mice weighing 20-25 g. […] Rectal temperature of each mouse was measured 4 hours later with a thermister (Shibaura Electric, BMG III-130). […] Male STD-ddY strain mice, weighing […], were used in groups of 10 mice each. […] The mice were tested for catalepsy 1 hour after the administration of test compounds. ED50 was calculated for each compound. […] Male STD-ddY strain mice, weighing 20-25 g, were used in groups of 10 mice each. […] Two hours after the tetrabenazine injection, the degree of eyelid closure (ptosis) was assessed on the basis of macroscopic scoring (0: no closure of the eyelid, 1: 1/4 closure, 2: 2/4 closure, 3: 3/4 closure and 4: complete closure), essentially according to the method of P. A. J. Janssen [Arzneim. Forsch. 15, 104 (1965)]. ED50 was calcuated for each compound. […] Male Wistar strain rats, weighing 240-260 g, which had developed mouse-killing behavior after ablation of the olfactory bulb according to the method of Z. P. Horovitz [Int. J. Neuropharmacol. 5, 405 (1966)], were used in groups of 15 animals each. […] ED50 was calculated for each compound.

tremorine-induced tremor = test: Anti-tremorine activity (antagonistic effect on tremorine-induced tremor); assay type: in vivo, male STD-ddY strain mice
Description: (§1) Pharmacological experiments have been done on the compound of the present invention, some known and novel analogous compounds and an antidepressant on the market, as mentioned below. In the experiments, ED50 was calculated by Litchfield-Wilcoxon method.
Male STD-ddY strain mice, weighing 20-25 g, were used in groups of 5 mice each. Each test compound was given orally to the mice in 5 different doses, and 2 hours later 20 mg/kg of tremorine was injected intraperitoneally. Half an hour after the injection of tremorine, each mouse was examined macroscopically for tremor severity, according to the rating scale with the scores 0, 1, 2, and 3 depending on the severity. ED50 was calculated for each compound. The ED50 means the dose of test compound in which the tremorine-induced tremor was inhibited by 50% in severity.

[2] = system: brain 5-hydroxyindoleacetic acid (5-HIAA); test: Effect on brain monoamine metabolites: 5-HIAA; assay type: in vivo, male Wistar strain rats; conditions: 100 mg/kg p.o.; for Brain 5-HIAA, % of control: *P<0.01
Description: (§2) Each test compound was given orally to the rats in a dose of 100 mg/kg and, 1, 3 and 6 hours later the rats were sacrificed. […] The concentrations of the monoamine metabolites were calculated in terms of ng/g wet brain tissue and expressed as % of the concentrations of controls receiving saline.

[3] = system: catalepsy induced by reserpine; test: Anti-reserpine activity: antagonistic effect on catalepsy induced by reserpine; assay type: in vivo, male STD-ddY strain mice; conditions: p.o.; for ED50: Mus musculus, po, 1 h, reserpine 5 mg/kg i.p.
Description: In the experiments, ED50 was calculated by Litchfield-Wilcoxon method. Male STD-ddY strain mice, weighing […], were used in groups of 10 mice each. […] The mice were tested for catalepsy 1 hour after the administration of test compounds. ED50 was calculated for each compound.

[4] = system: methamphetamine-induced locomotor activity; test: Anti-methamphetamine effect (inhibitory effect on methamphetamine-induced locomotor activity); assay type: in vivo, male STD-ddY strain mice
Description: as §1
Male STD-ddY strain mice, weighing 20-25 g, were used in groups of 10 mice each. Groups of mice were injected intraperitoneally with 4 mg/kg of methamphetamine, and 30 minutes later each test compound was injected intraperitoneally in 3 different doses. One hour after the injection of methamphetamine, locomotor activity of each mouse was measured for 10 minutes with an Animex locomotor activity meter.

[5] = system: hypothermia induced by reserpine; test: Anti-reserpine activity: antagonistic effect on hypothermia induced by reserpine; assay type: in vivo, male STD-ddY strain mice; conditions: p.o.; for ED50: Mus musculus, po, 4 h, reserpine 5 mg/kg i.p.
Description: Pharmacological experiments have been done on the compound of the present invention, some known and novel analogous compounds and an antidepressant on the market, as mentioned below. In the experiments, ED50 was calculated by Litchfield-Wilcoxon method. This effect was examined according to the method of […]. 2, 725 (1963)], using male STD-ddY strain mice weighing 20-25 g. […] Rectal temperature of each mouse was measured 4 hours later with a thermister (Shibaura Electric, BMG III-130).

[6] = system: spontaneous locomotor activity; test: Inhibitory effect on spontaneous locomotor activity; assay type: in vivo, male STD-ddY strain mice
Description: as §1
Male mice of STD-ddY strain, weighing 20-25 g, were used in groups of 5 mice each. Each test compound was given orally to the mice in 5 different doses, and 2 hours later the spontaneous locomotor activity of each mouse was measured for 3 minutes by means of an Animex locomotor activity meter (made by Farad Electronics). ED50 was calculated for each compound. The ED50 means the dose of test compound in which the locomotor activity was reduced to 50% of that of control group receiving saline.

[7] = system: brain homovanillic acid (HVA); test: Effect on brain monoamine metabolites: HVA; assay type: in vivo, male Wistar strain rats; conditions: 100 mg/kg p.o.; for Brain HVA, % of control: *P<0.01
Description: as §2

Acute toxicity = conditions: mouse, in vivo, 7 days observation
Description: (§3) Male STD-ddY strain mice, weighing 20-25 g, were used. Each test compound was given orally or intraperitoneally to the mice (each group: 10 mice) in 5 to 7 different doses, and their mortality was examined during the observation period of 7 days. The median lethal dose (LD50) was calculated for each compound by the probit method.

mice = test: Acute toxicity; conditions: mouse, in vivo
Description: as §3

In the case of CCN1CCN(c2cc(-c3ccccc3)c3ccccc3n2)CC1.Cl.Cl [A, 2-(4-Ethyl-1-piperazinyl)-4-phenylquinoline dihydrochloride], the “Neuroleptics-like activity (in words)” value [1] is reported as “shows some neuroleptics-like effects”, the “Anti-reserpine activity (in words)” value (antidepressant activity; hypothermia and catalepsy, p.o.) is reported as “more potent anti-reserpine activity than imipramine” and the “Antidepressant activity (in words)” value (antidepressant activity; overall conclusion) is reported as “more potent than its analogues, compounds 1 and 2 and also than imipramine”. For the same compound, the “Anti-reserpine and anti-tetrabenazine potency relative to compounds 4 and 5” value (antidepressant activity; versus compounds 4 and 5, Table 2, p.o.) was 2-17 times more potent, the ED50 (tremorine-induced tremor; Mus musculus, po, tremorine 20 mg/kg i.p., read-out: Anti-tremorine activity ED50) was 9.7 mg/kg and the “Anti-tremorine activity (in words)” value (tremorine-induced tremor; p.o.) was “more potent than imipramine and almost comparable to biperiden”. The “Brain 5-HIAA concentration / serotonin turnover (in words)” value [2] was “does not affect brain 5-HIAA concentration”, the “Brain 5-HIAA, % of control” value ([2]; 1 hour) was 118 % of control and the “Brain 5-HIAA, % of control” value ([2]; 3 hours) was 110 % of control. The “Brain 5-HIAA, % of control” value ([2]; 6 hours) was 116 % of control, the ED50 ([3]; Table 1, read-out: Anti-reserpine activity ED50, catalepsy) was 1.5 mg/kg and the ED50 ([3]; Table 2, read-out: Anti-reserpine ED50, catalepsy) was 1.5 mg/kg. The “Potency in antagonizing reserpine catalepsy relative to imipramine” value ([3]; versus imipramine) was 25.5 times more powerful, the ED50 ([4]; Mus musculus, ip, methamphetamine 4 mg/kg i.p., read-out: Anti-methamphetamine ED50) was 8 mg/kg and the “Activity relative to chlorpromazine, methamphetamine-induced locomotor activity” value ([4]; fraction of chlorpromazine activity, i.p.) was “about 1/8”. The ED50 ([5]; Table 1, read-out: Anti-reserpine activity ED50, hypothermia) was 5.8 mg/kg, the ED50 ([5]; Table 2, read-out: Anti-reserpine ED50, hypothermia) was 5.8 mg/kg and the “Potency in antagonizing reserpine hypothermia relative to imipramine” value ([5]; versus imipramine) was 3.7 times more powerful. The ED50 ([6]; Mus musculus, po, 2 hours after dosing, read-out: Spontan. locomotor ED50) was 58.7 mg/kg, the “Activity relative to chlorpromazine, spontaneous locomotor activity” value ([6]; fraction of chlorpromazine activity, p.o.) was “about 1/8” and the “Brain HVA concentration / dopamine turnover (in words)” value [7] was “marked increase in brain HVA concentration”. For the same compound, the “Brain HVA, % of control” value ([7]; 1 hour) was 193 % of control, the “Brain HVA, % of control” value ([7]; 3 hours) was 186 % of control and the “Brain HVA, % of control” value ([7]; 6 hours) was 186 % of control. The LD50 at 168 h (Acute toxicity; ip) was 119 mg/kg, the LD50 at 168 h (Acute toxicity; po) was 568 mg/kg and the “Acute toxicity (in words)” value (mice) was “comparable to or somewhat weaker than that of imipramine”.
